Measurements as given in PubChem BioAssay AID248 (DTP/NCI, 2004).
“And” between values parts separate entries of the source, which are not always exact repeats. Identical values can stand only once. Inconclusive results and toxic doses are left out. No stated cut-off is given here; in the data, active means T/C of 150% or more; inactive means T/C below 125%.

System: L1210 leukemia ip in BDF1 mice, survival T/C
Test: NCI In Vivo Anticancer Drug Screen. Data for tumor model L1210 Leukemia (intraperitoneal) in B6D2F1 (BDF1) mice
Conditions: higher = longer survival
In short: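 Transplantable tumor model; survival measured in treated vs vehicle control mice. Value = treated/control.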

[1] = endpoint: mean survival time, dose: 100.0 mg/kg/injection, schedule: Q01DX001 (ip), vehicle: Klucel (hydroxypropylcellulose) (HPC)
[2] = endpoint: mean survival time, dose: 200.0 mg/kg/injection, schedule: Q01DX001 (ip), vehicle: Klucel (hydroxypropylcellulose) (HPC)
[3] = endpoint: mean survival time, dose: 100.0 mg/kg/injection, schedule: Q01DX009 (ip), vehicle: Klucel (hydroxypropylcellulose) (HPC)
[4] = endpoint: mean survival time, dose: 100.0 mg/kg/injection, schedule: Q04DX003 (ip), vehicle: saline with Tween-80
[5] = endpoint: mean survival time, dose: 200.0 mg/kg/injection, schedule: Q04DX003 (ip), vehicle: saline with Tween-80
[6] = endpoint: mean survival time, dose: 400.0 mg/kg/injection, schedule: Q04DX003 (ip), vehicle: saline with Tween-80
[7] = endpoint: mean survival time, dose: 100.0 mg/kg/injection, schedule: Q01DX001 (ip), vehicle: saline with Tween-80
[8] = endpoint: mean survival time, dose: 100.0 mg/kg/injection, schedule: Q01DX009 (ip), vehicle: saline with Tween-80
[9] = endpoint: mean survival time, dose: 200.0 mg/kg/injection, schedule: Q01DX009 (ip), vehicle: saline with Tween-80
[10] = endpoint: mean survival time, dose: 100.0 mg/kg/injection, schedule: Q04DX002 (ip), vehicle: Klucel (hydroxypropylcellulose) (HPC)
[11] = endpoint: mean survival time, dose: 200.0 mg/kg/injection, schedule: Q01DX009 (ip), vehicle: Klucel (hydroxypropylcellulose) (HPC)
[12] = endpoint: mean survival time, dose: 50.0 mg/kg/injection, schedule: Q01DX009 (ip), vehicle: saline
[13] = endpoint: mean survival time, dose: 100.0 mg/kg/injection, schedule: Q01DX009 (ip), vehicle: saline
[14] = endpoint: mean survival time, dose: 400.0 mg/kg/injection, schedule: Q01DX009 (ip), vehicle: Klucel (hydroxypropylcellulose) (HPC)
[15] = endpoint: mean survival time, dose: 200.0 mg/kg/injection, schedule: Q01DX009 (ip), vehicle: saline

Measured: T/C

COc1ccc(-n2c(=O)c(N=Nc3ccccc3OC)c(O)n(-c3ccc(C)cc3)c2=S)cc1
inactive: endpoint: mean survival time, dose: 50.0 mg/kg/injection, schedule: Q01DX001 (ip), vehicle: Klucel (hydroxypropylcellulose) (HPC) 92 % of control | [1] 89 % of control | [2] 91 % of control

Nc1ccc2c(c1)C(=O)c1ccccc1-2
inactive: [1] 88 % of control | [2] 95 % of control | endpoint: mean survival time, dose: 400.0 mg/kg/injection, schedule: Q01DX001 (ip), vehicle: Klucel (hydroxypropylcellulose) (HPC) 97 % of control

CN(C)C(=O)OC(C)(C)C
inactive: endpoint: mean survival time, dose: 100.0 mg/kg/injection, schedule: Q04DX002 (ip), vehicle: saline 97 % of control | endpoint: mean survival time, dose: 200.0 mg/kg/injection, schedule: Q04DX002 (ip), vehicle: saline 101 % of control | endpoint: mean survival time, dose: 400.0 mg/kg/injection, schedule: Q04DX002 (ip), vehicle: saline 97 % of control

CCCCCCCCCCCCCCCC[N+]1(C)CCOCC1
inactive: endpoint: mean survival time, dose: 50.0 mg/kg/injection, schedule: Q01DX009 (ip), vehicle: Klucel (hydroxypropylcellulose) (HPC) 114 % of control | [3] 93 % of control

CCOC(=O)c1cc(C)[nH]c1C
inactive: endpoint: mean survival time, dose: 100.0 mg/kg/injection, schedule: Q01DX009 (ip), vehicle: gum acacia 100 % of control | endpoint: mean survival time, dose: 200.0 mg/kg/injection, schedule: Q01DX009 (ip), vehicle: gum acacia 95 % of control | endpoint: mean survival time, dose: 400.0 mg/kg/injection, schedule: Q01DX009 (ip), vehicle: gum acacia 105 % of control

CCCCCCCCCCNc1ccc(Cl)nn1
inactive: [4] 93 % of control | [5] 93 % of control | [6] 90 % of control

CN(C)c1nc(N)c(N)c(N)n1
inactive: endpoint: mean survival time, dose: 25.0 mg/kg/injection, schedule: Q01DX001 (ip), vehicle: saline with Tween-80 101 % of control | endpoint: mean survival time, dose: 50.0 mg/kg/injection, schedule: Q01DX001 (ip), vehicle: saline with Tween-80 107 % of control | [7] 96 % of control and 97 % of control

CN1CCC23c4c5ccc(O)c4OC2C(=O)CCC3C1C5 (stereo not drawn)
inactive: endpoint: mean survival time, dose: 75.0 mg/kg/injection, schedule: Q01DX001 (ip), vehicle: saline 95 % of control

CC(=O)C(C)(C)O
inactive: [8] 90 % of control | [9] 87 % of control | endpoint: mean survival time, dose: 400.0 mg/kg/injection, schedule: Q01DX009 (ip), vehicle: saline with Tween-80 92 % of control

O=C(OC1CCCCC1)c1ccccc1-c1ccccc1C(=O)OC1CCCCC1
inactive: endpoint: mean survival time, dose: 100.0 mg/kg/injection, schedule: Q01DX001 (ip), vehicle: other 91 % of control | endpoint: mean survival time, dose: 200.0 mg/kg/injection, schedule: Q01DX001 (ip), vehicle: other 91 % of control | endpoint: mean survival time, dose: 400.0 mg/kg/injection, schedule: Q01DX001 (ip), vehicle: other 86 % of control

C=C(C)COc1ccccc1
inactive: endpoint: mean survival time, dose: 100.0 mg/kg/injection, schedule: Q01DX005 (ip), vehicle: Klucel (hydroxypropylcellulose) (HPC) 101 % of control | [3] 100 % of control | [10] 100 % of control | endpoint: mean survival time, dose: 200.0 mg/kg/injection, schedule: Q01DX005 (ip), vehicle: Klucel (hydroxypropylcellulose) (HPC) 108 % of control | [11] 102 % of control | endpoint: mean survival time, dose: 200.0 mg/kg/injection, schedule: Q04DX002 (ip), vehicle: Klucel (hydroxypropylcellulose) (HPC) 100 % of control | endpoint: mean survival time, dose: 400.0 mg/kg/injection, schedule: Q01DX005 (ip), vehicle: Klucel (hydroxypropylcellulose) (HPC) 97 % of control | endpoint: mean survival time, dose: 400.0 mg/kg/injection, schedule: Q04DX002 (ip), vehicle: Klucel (hydroxypropylcellulose) (HPC) 107 % of control

CCC(=O)NCC1(c2ccccc2)CCN(CCCC(=O)c2ccc(F)cc2)CC1
inactive: endpoint: mean survival time, dose: 25.0 mg/kg/injection, schedule: Q01DX009 (ip), vehicle: saline 121 % of control | [12] 113 % of control | [13] 121 % of control

CCC(C)NC(=O)Nc1ccccc1Cl (stereo not drawn)
inactive: [3] 101 % of control | [11] 95 % of control | [14] 100 % of control

CC(Cl)CN(C)c1ccc2ccccc2c1 (stereo not drawn)
inactive: endpoint: median survival time, dose: 100.0 mg/kg/injection, schedule: Q01DX009 (ip), vehicle: Klucel (hydroxypropylcellulose) (HPC) 97 % of control | endpoint: median survival time, dose: 200.0 mg/kg/injection, schedule: Q01DX009 (ip), vehicle: Klucel (hydroxypropylcellulose) (HPC) 87 % of control

CCCCCCCCCCCCCCCCOc1cccc(C=O)c1
inactive: [4] 97 % of control | [5] 93 % of control | [6] 116 % of control

O=C(O)CCI
inactive: [12] 98 % of control | [13] 90 % of control | endpoint: mean survival time, dose: 100.0 mg/kg/injection, schedule: Q04DX003 (ip), vehicle: other 102 % of control | [15] 100 % of control | endpoint: mean survival time, dose: 200.0 mg/kg/injection, schedule: Q04DX003 (ip), vehicle: other 96 % of control

Cc1c(-c2ccccc2)ccnc1C#N
inactive: endpoint: mean survival time, dose: 50.0 mg/kg/injection, schedule: Q01DX009 (ip), vehicle: saline with Tween-80 97 % of control | [8] 102 % of control | [9] 97 % of control

CCCCCCCCCCCC(=O)NC(=S)Nc1ccc([N+](=O)[O-])cc1OC
inactive: endpoint: mean survival time, dose: 100.0 mg/kg/injection, schedule: Q04DX003 (ip), vehicle: Klucel (hydroxypropylcellulose) (HPC) 96 % of control | endpoint: mean survival time, dose: 200.0 mg/kg/injection, schedule: Q04DX003 (ip), vehicle: Klucel (hydroxypropylcellulose) (HPC) 92 % of control | endpoint: mean survival time, dose: 400.0 mg/kg/injection, schedule: Q04DX003 (ip), vehicle: Klucel (hydroxypropylcellulose) (HPC) 102 % of control

Cc1cc(C(=O)/C=C(\C(=O)c2ccccc2)c2ccccc2)ccc1Cl
inactive: endpoint: mean survival time, dose: 12.5 mg/kg/injection, schedule: Q04DX002 (ip), vehicle: Klucel (hydroxypropylcellulose) (HPC) 98 % of control | endpoint: mean survival time, dose: 25.0 mg/kg/injection, schedule: Q04DX002 (ip), vehicle: Klucel (hydroxypropylcellulose) (HPC) 119 % of control | endpoint: mean survival time, dose: 50.0 mg/kg/injection, schedule: Q04DX002 (ip), vehicle: Klucel (hydroxypropylcellulose) (HPC) 94 % of control | [10] 86 % of control

O=C(CCCCCCC(=O)C[n+]1ccccc1CO)C[n+]1ccccc1CO
inactive: endpoint: mean survival time, dose: 12.5 mg/kg/injection, schedule: Q04DX003 (ip), vehicle: saline 101 % of control

CCCCN(C)CC#N
inactive: endpoint: mean survival time, dose: 6.25 mg/kg/injection, schedule: Q01DX009 (ip), vehicle: saline with Tween-80 102 % of control | endpoint: mean survival time, dose: 12.5 mg/kg/injection, schedule: Q01DX009 (ip), vehicle: saline with Tween-80 96 % of control | endpoint: mean survival time, dose: 12.5 mg/kg/injection, schedule: Q04DX003 (ip), vehicle: saline with Tween-80 94 % of control | endpoint: mean survival time, dose: 25.0 mg/kg/injection, schedule: Q01DX009 (ip), vehicle: saline with Tween-80 104 % of control | endpoint: mean survival time, dose: 25.0 mg/kg/injection, schedule: Q04DX003 (ip), vehicle: saline with Tween-80 94 % of control

CC1(C)N=C(N)N=C(N)N1c1ccc(CCc2ccc(Cl)cc2S(=O)(=O)F)c(Cl)c1
inactive: [7] 91 % of control | endpoint: mean survival time, dose: 200.0 mg/kg/injection, schedule: Q01DX001 (ip), vehicle: saline with Tween-80 94 % of control | endpoint: mean survival time, dose: 400.0 mg/kg/injection, schedule: Q01DX001 (ip), vehicle: saline with Tween-80 97 % of control

COc1cc2c(cc1OC)[C@H]1CNC[C@H]1[C@@H](c1ccccc1)C2
inactive: [12] 95 % of control | [13] 106 % of control | endpoint: mean survival time, dose: 100.0 mg/kg/injection, schedule: Q04DX003 (ip), vehicle: saline 97 % of control | [15] 106 % of control | endpoint: mean survival time, dose: 200.0 mg/kg/injection, schedule: Q04DX003 (ip), vehicle: saline 106 % of control

O=C(COc1cc(Cl)c(Cl)cc1Cl)Nc1cccc(O)c1
inactive: [3] 101 % of control | [11] 96 % of control | [14] 115 % of control
